Measurements: patent US8722730B2, “5-membered heterocyclic compound” (Research Foundation Itsuu Laboratory, priority 2007, dated 2014)
Where two headings read alike, the source gives them in different places.

What was measured:
[1] = cited from earlier work
[2] = tested on: human acute promyelocytic leukemia cell strain HL-60; assay: Differentiation induction of HL-60 cells, NBT-reducing ability; format: cell-based; settings: 96 h, cultured four days, NBT reduction, read-out: ED50 (the source's name)
Protocol: Cells of human acute promyelocytic leukemia cell strain HL-60 were cultured in a CO2 incubator (5% CO2, 37° C.) using the RPMI medium containing 5% FBS. Differentiation inducing action of the compounds of the present invention on the HL-60 cells were evaluated on the basis of ability to reduce nitroblue tetrazolium (NBT) determined by observing differentiation from promyelocytic cells into granulocytic cells as an index. As positive control of retinoid compounds, retinoic acid and Am80 [4-[(5,6,7,8-tetrahydro-5,5,8,8-tetramethyl-2-naphthalenyl)carbamoyl]benzoic acid] were used. The cells that entered into the logarithmic phase and reached a substantially confluent state were centrifuged at 1000 rpm for 5 minutes, and the culture supernatant was removed. The cell pellet was suspended in fresh RPMI medium containing 5% FBS at a density of 8.0×10^4 cells/ml, then the suspension was added with a test compound dissolved in DMSO at an intended concentration, and the cells were cultured for four days and then used for the experiment. The samples were prepared so as to have the same DMSO concentration.
Cell count of the cells after the culture for a predetermined period was determined by a cell counting method using a blood cell counting chamber. The NBT-reducing ability was obtained as follows. NBT was dissolved in a phosphate buffered saline (PBS(−)) at a concentration of 0.2%, and the solution was added with an equivalent volume of the RPMI medium containing 5% FBS. The mixture was added with phorbol 12-myristate 13-acetate (tPA) at a concentration of 0.2 μM (about 200 ng) to prepare a reagent solution. The collected cells were centrifuged at 1000 rpm for 5 minutes, the supernatant was removed, and the remained cell pellet was added with the reagent solution. The mixture was incubated on a water bath at 37° C. for 20 minutes, and then NBT-reduced stained positive cells were counted by using the counting chamber to calculate a differentiation induction ratio.

For `CC(C)(C)c1ccc(C(=O)Nc2ccc(C(=O)O)cc2)o1` [4-[(5-t-butylfuran-2-carbonyl)amino]benzoic acid], the differentiation induction ratio ([1]; at 3.7 μM) is given as 26%, the differentiation induction ratio ([1]; at 19 μM) is given as 42% and the differentiation induction ratio ([1]; at 74 μM) is given as 60%.
In the case of `CC(C)(C)c1ccc(C(=O)Nc2ccc(C(=O)O)cc2)s1` [4-[(5-t-butylthiophene-2-carbonyl)amino]benzoic acid], the differentiation induction ([1]; at 0.22 μM) is listed as “no differentiation induction”, the differentiation induction ratio ([1]; at 1.1 μM) is listed as 22% and the differentiation induction ratio ([1]; at 5.6 μM) is listed as 23%.
With `CC1(C)CCC(C)(C)c2cc(NC(=O)c3ccc(C(=O)O)cc3)ccc21` [Am80, 4-[(5,6,7,8-tetrahydro-5,5,8,8-tetramethyl-2-naphthalenyl)carbamoyl]benzoic acid, reference compound] the EC50 [2] was 0.0016 µM.
`CC(C)c1cc(C(=O)Nc2ccc(C(=O)O)cc2)oc1C(C)C` [Compound 1, 4-[(4,5-Diisopropylfuran-2-carbonyl)amino]benzoic acid] gave an EC50 [2] of 0.0011 µM and a melting point of 120 to 121 °C.
In the case of `CC(C)c1cc(C(=O)Nc2ccc(OCC(=O)O)cc2)oc1C(C)C` [Compound 3, 4-[(4,5-Diisopropylfuran-2-carbonyl)amino]phenyloxyacetic acid], the melting point is reported as 83 to 85 °C.
For `CC(C)c1cc(C(=O)Nc2ccc(CC(=O)O)cc2)oc1C(C)C` [Compound 4, 4-[(4,5-Diisopropylfuran-2-carbonyl)amino]phenylacetic acid], the melting point was 154 to 156 °C.
`CC(C)c1cc(C(=O)Nc2cccc(C(=O)O)c2)oc1C(C)C` [Compound 5, 3-[(4,5-Diisopropylfuran-2-carbonyl)amino]benzoic acid] showed a melting point of 243.5 to 245 °C.
Work on `CC(C)c1cc(C(=O)Nc2ccc(CCC(=O)O)cc2)oc1C(C)C` [Compound 6, 3-[4-[(4,5-Diisopropylfuran-2-carbonyl)amino]phenyl]propionic acid] yielded an EC50 [2] of over 1 µM and a melting point of 139 to 141 °C.
With `CC(C)c1cc(C(=O)Nc2ccc(C(=O)O)nc2)oc1C(C)C` [Compound 7, 5-[(4,5-Diisopropylfuran-2-carbonyl)amino]pyridine-2-carboxylic acid] the EC50 [2] was 0.0131 µM and the melting point was 106 to 107.5 °C.
Work on `CC(C)c1cc(C(=O)Nc2ccc(C(=O)O)cn2)oc1C(C)C` [Compound 8, 6-[(4,5-Diisopropylfuran-2-carbonyl)amino]pyridine-3-carboxylic acid] yielded an EC50 [2] of 0.0019 µM and a melting point of 278 to 279 °C.
Work on `CC(C)c1cc(C(=O)Nc2ccc(C(=O)O)s2)oc1C(C)C` [Compound 9, 5-[(4,5-Diisopropylfuran-2-carbonyl)amino]thiophene-2-carboxylic acid] yielded an EC50 [2] of 0.0729 µM and a melting point of 227 to 228.5 °C.
`CC(C)c1cc(/C=C/C(=O)Nc2ccc(C(=O)O)cc2)oc1C(C)C` [Compound 10, 4-[[3-(4,5-Diisopropyl-2-furanyl)acryloyl]amino]benzoic acid] showed an EC50 [2] of 0.166 µM and a melting point of 131 to 133 °C.
`C/C(=C\C(=O)Nc1ccc(C(=O)O)cc1)c1cc(C(C)C)c(C(C)C)o1` [Compound 11, 4-[[3-(4,5-Diisopropyl-2-furanyl)crotonoyl]amino]benzoic acid] gave an EC50 [2] of 0.0747 µM and a melting point of 232.5 to 235 °C.
In the case of `CC(C)c1cc(C(=O)Nc2ccc(C(=O)O)cc2)[nH]c1C(C)C` [Compound 12, 4-[(4,5-Diisopropylpyrrole-2-carbonyl)amino]benzoic acid], the EC50 [2] is reported as 0.0404 µM and the melting point is reported as 230 to 230.5 °C.
Molecule `CC(C)c1cc(C(C)C)c(C(=O)Nc2ccc(C(=O)O)cc2)[nH]1` [Compound 13, 4-[(3,5-Diisopropylpyrrole-2-carbonyl)amino]benzoic acid] has a melting point of 225 to 226 °C.
Work on `CC(C)c1[nH]c(C(=O)Nc2ccc(C(=O)O)cc2)c(C(C)C)c1C(C)C` [Compound 14, 4-[(3,4,5-Triisopropylpyrrole-2-carbonyl)amino]benzoic acid] yielded an EC50 [2] of over 1 µM and a melting point of over 300 °C.
Molecule `CC(C)c1cc(C(=O)Nc2ccc(C(=O)O)cc2)sc1C(C)C` [Compound 15, 4-[(4,5-Diisopropylthiophene-2-carbonyl)amino]benzoic acid] has an EC50 [2] of 0.0018 µM and a melting point of 219 to 221 °C.
Molecule `CC(C)c1cc(C(=O)Nc2ccc(C(=O)O)nc2)sc1C(C)C` [Compound 16, 5-[(4,5-Diisopropylthiophene-2-carbonyl)amino]pyridine-2-carboxylic acid] has a melting point of 216 to 217 °C.
`CC(C)c1cc(C(=O)Nc2ccc(C(=O)O)cn2)sc1C(C)C` [Compound 17, 6-[(4,5-Diisopropylthiophene-2-carbonyl)amino]pyridine-3-carboxylic acid] showed a melting point of over 300 °C.
With `CC(C)c1cc(C(=O)Nc2ccc(C(=O)O)c(F)c2)oc1C(C)C` [Compound 22, 2-Fluoro-4-[(4,5-diisopropylfuran-2-carbonyl)amino]benzoic acid] the melting point was 151 to 152 °C.
In the case of `CC(C)c1cc(C(=O)Nc2ccc(C(=O)O)c(Cl)c2)oc1C(C)C` [Compound 23, 2-Chloro-4-[(4,5-diisopropylfuran-2-carbonyl)amino]benzoic acid], the melting point is reported as 152 to 153 °C.
In the case of `CC(C)c1cc(C(=O)Nc2ccc(C(=O)O)c(O)c2)oc1C(C)C` [Compound 24, 2-Hydroxy-4-[(4,5-diisopropylfuran-2-carbonyl)amino]benzoic acid], the melting point is reported as 179 to 180 °C.
Molecule `COc1cc(NC(=O)c2cc(C(C)C)c(C(C)C)o2)ccc1C(=O)O` [Compound 25, 2-Methoxy-4-[(4,5-diisopropylfuran-2-carbonyl)amino]benzoic acid] has a melting point of 136 to 137 °C.
Work on `CC(C)c1cc(/C=C/C(=O)N(C)c2ccc(C(=O)O)cc2)oc1C(C)C` [Compound 27, 4-[[3-(4,5-Diisopropyl-2-furanyl)acryloyl]methylamino]benzoic acid] yielded a melting point of 213 to 214 °C.
`CC(C)c1cc(/C=C/C(=O)Nc2cccc(C(=O)O)c2)oc1C(C)C` [Compound 28, 3-[[3-(4,5-Diisopropyl-2-furanyl)acryloyl]amino]benzoic acid] showed a melting point of 220.5 to 221.5 °C.
Work on `CC(C)c1cc(/C=C/C(=O)N(C)c2cccc(C(=O)O)c2)oc1C(C)C` [Compound 29, 3-[[3-(4,5-Diisopropyl-2-furanyl)acryloyl]methylamino]benzoic acid] yielded a melting point of 187.5 to 189 °C.
For `CC(C)c1cc(C(=O)Nc2ccc(C(=O)O)o2)oc1C(C)C` [Compound 35, 5-[(4,5-Diisopropylfuran-2-carbonyl)amino]-2-furancarboxylic acid], the melting point was 169 to 171 °C.
Work on `CC(C)c1cc(C(=O)Nc2ccc3[nH]c(C(=O)O)cc3c2)oc1C(C)C` [Compound 36, 5-[(4,5-Diisopropylfuran-2-carbonyl)amino]-2-indolecarboxylic acid] yielded a melting point of 240 to 243 °C.
For `CC(C)c1cc(C(=O)Nc2ccc(C(=O)O)c(F)c2)sc1C(C)C` [Compound 39, 2-Fluoro-4-[(4,5-diisopropylthiophene-2-carbonyl)amino]benzoic acid], the melting point was 133 to 135 °C.
`CC(C)c1cc(C(=O)Nc2ccc(C(=O)O)c(Cl)c2)sc1C(C)C` [Compound 40, 2-Chloro-4-[(4,5-diisopropylthiophene-2-carbonyl)amino]benzoic acid] gave a melting point of 222 to 223 °C.
Work on `CC(C)c1cc(C(=O)Nc2ccc(C(=O)O)c(O)c2)sc1C(C)C` [Compound 41, 2-Hydroxy-4-[(4,5-diisopropylthiophene-2-carbonyl)amino]benzoic acid] yielded a melting point of 129 to 130 °C.
Work on `COc1cc(NC(=O)c2cc(C(C)C)c(C(C)C)s2)ccc1C(=O)O` [Compound 42, 2-Methoxy-4-[(4,5-diisopropylthiophene-2-carbonyl)amino]benzoic acid] yielded a melting point of 213 to 214 °C.
For `CC(C)c1cc(C(=O)Nc2cc(F)c(C(=O)O)c(F)c2)sc1C(C)C` [Compound 43, 2,6-Difluoro-4-[(4,5-diisopropylthiophene-2-carbonyl)amino]benzoic acid], the melting point was 218 to 219 °C.
